For the molecule `CNS(=O)(=O)c1sc(N(C)C(=O)Cc2ccc(-c3ccccc3Cl)cc2)nc1C`, the melting point stood at 128 °C.

With `Cc1nc(N(C)C(=O)Cc2ccc(-c3cccc(N)c3)cc2)sc1S(N)(=O)=O`, the melting point was 209 °C.

On to `Cc1nc(N(C)C(=O)Cc2ccc(-c3ccccc3)cc2)sc1S(=O)(=O)NCCO`, for which the melting point was 167 °C.

For `Cc1nc(N(C)C(=O)Cc2ccc(-c3cccc([N+](=O)[O-])c3)cc2)sc1S(=O)(=O)N(C)C`, the melting point was 81 °C.

With `Cc1nc(N(C)C(=O)Cc2ccc(-c3ncccc3C(F)(F)F)cc2)sc1S(N)(=O)=O`, the melting point amounted to 221 °C.

`Cc1nc(N(C)C(=O)Cc2ccc(-c3cncnc3)cc2)sc1S(N)(=O)=O`: the melting point was 234 °C.

Molecule `Cc1nc(N(C)C(=O)Cc2ccc(-c3ncccc3F)cc2)sc1S(N)(=O)=O` came in with a melting point of 218 °C.

With `Cc1nc(N(C)C(=O)Cc2ccc(-c3ncccc3C(F)(F)F)cc2)sc1S(N)(=O)=O.Cl`, the melting point came out at 225 °C.

Take `CNS(=O)(=O)c1sc(N(C)C(=O)Cc2ccc(-c3ncccc3O)cc2)nc1C`: the melting point was 225 °C.

`Cc1nc(N(C)C(=O)Cc2ccc(-c3ncccc3F)cc2)sc1S(N)(=O)=O.Cl` showed a melting point of 206 °C.

On to `Cc1nc(N(C)C(=O)Cc2ccc(-c3ccccc3)cc2)sc1S(=O)(=O)N(C)C`, for which the melting point came to 184 °C.

Take `CC(=O)Nc1cccc(-c2ccc(CC(=O)N(C)c3nc(C)c(S(N)(=O)=O)s3)cc2)c1`: the melting point worked out at 234 °C.

In turn, `Cc1nc(N(C)C(=O)Cc2ccc(-c3cnccn3)cc2)sc1S(N)(=O)=O` showed a melting point of 217 °C.

The molecule `CNS(=O)(=O)c1sc(N(C)C(=O)Cc2ccc(-c3cnccn3)cc2)nc1C` returned a melting point of 187 °C.

As to `Cc1nc(N(C)C(=O)Cc2ccc(-c3ccccc3C(F)(F)F)cc2)sc1S(=O)(=O)NCCNC(=O)OC(C)(C)C`, the melting point was 156 °C.

Molecule `Cc1nc(N(CCc2ccncc2)C(=O)Cc2ccc(-c3ccccc3)cc2)sc1S(N)(=O)=O` showed a melting point of 204 °C.

As for `COCCCN(C(=O)Cc1ccc(-c2ccccc2)cc1)c1nc(C)c(S(N)(=O)=O)s1`, the melting point amounted to 148 °C.

Molecule `CCOc1ccc(CC(=O)N(C)c2nc(C)c(S(=O)(=O)NC)s2)cc1` showed a melting point of 157 °C.

`COc1ccc(F)cc1-c1ccc(CC(=O)N(CC2CCCO2)c2nc(C)c(S(N)(=O)=O)s2)cc1` (centres unmarked) returned a melting point of 79 °C.

Regarding `Cc1nc(N(C)C(=O)Cc2ccc(-c3ccncc3F)cc2)sc1S(N)(=O)=O`, the melting point came out at 223 °C.

Turning to `Cc1nc(N(C)C(=O)Cc2ccc(-c3ccccc3)cc2)sc1S(=O)(=O)NCCOC(=O)CNC(=O)OC(C)(C)C`, the melting point amounted to 159 °C.

`Cc1nc(N(C)C(=O)Cc2ccc(-c3ccccc3)cc2F)sc1S(N)(=O)=O` showed a melting point of 130 °C.

In turn, `Cc1nc(N(C)C(=O)Cc2ccc(-c3ccccn3)cc2)sc1S(=O)(=O)NCCO[Si](C)(C)C(C)(C)C` showed a melting point of 130 °C.

`Cc1nc(N(C)C(=O)Cc2ccc(-c3ccccn3)cc2)sc1S(=O)(=O)NCCO` had a melting point of 175 °C.

`CNS(=O)(=O)c1sc(NC(=O)Cc2ccc(-c3ccccc3)cc2)nc1C` yielded a melting point of 133 °C.

The molecule `COCCN(C(=O)Cc1ccc(-c2ccccc2)cc1)c1nc(C)c(S(N)(=O)=O)s1` came in with a melting point of 163 °C.

The molecule `CNS(=O)(=O)c1sc(N(C)C(=O)Cc2ccc(-c3cccc(Cl)c3)cc2)nc1C` yielded a melting point of 187 °C.

With `CONS(=O)(=O)c1sc(N(C)C(=O)Cc2ccc(-c3ccccc3)cc2)nc1C`, the melting point is 129 °C.

`CCOCCNS(=O)(=O)c1sc(N(C)C(=O)Cc2ccc(-c3ccccc3)cc2)nc1C` had a melting point of 105 to 106 °C.

Turning to `CCOCCCNS(=O)(=O)c1sc(N(C)C(=O)Cc2ccc(-c3ccccc3)cc2)nc1C`, the melting point lay within 139 to 140 °C.

`CNS(=O)(=O)c1sc(N(C)C(=O)Cc2ccc(-c3cc(C)cc(C)c3)cc2)nc1C` registered a melting point of 170 °C.

Take `CNS(=O)(=O)c1sc(N(C)C(=O)Cc2ccc(-c3ccccc3OC(F)(F)F)cc2)nc1C`: the melting point is 190 °C.

Take `CNS(=O)(=O)c1sc(N(C)C(=O)Cc2ccc(-c3cccc(C=O)c3)cc2)nc1C`: the melting point stood at 192 °C.

In turn, `CNS(=O)(=O)c1sc(N(C)C(=O)Cc2ccc(-c3cccc(N)c3)cc2)nc1C` displayed a melting point of 193 °C.

Take `CNS(=O)(=O)c1sc(N(C)C(=O)Cc2ccc(-c3cccc([N+](=O)[O-])c3)cc2)nc1C`: the melting point worked out at 201 °C.

Molecule `CCOCCCNS(=O)(=O)c1sc(N(C)C(=O)Cc2ccc(-c3cccc(OC)c3)cc2)nc1C` showed a melting point of 125 to 127 °C.

`CNS(=O)(=O)c1sc(N(C)C(=O)Cc2ccc(-c3cccc(OC(F)(F)F)c3)cc2)nc1C` registered a melting point of 156 °C.

Turning to `Cc1nc(N(C)C(=O)Cc2ccc(-c3cccnc3)cc2)sc1S(N)(=O)=O`, the melting point is 208 °C.

For `CNS(=O)(=O)c1sc(N(C)C(=O)Cc2ccc(-c3ccccc3)cc2)nc1C`, the melting point turned out to be 180 °C.

Molecule `Cc1nc(N(C)C(=O)Cc2ccc(-c3cccnc3)cc2)sc1S(N)(=O)=O.Cl` came in with a melting point of 177 °C.

As for `CNS(=O)(=O)c1sc(N(C)C(=O)Cc2ccc(-c3cccnc3)cc2)nc1C`, the melting point was determined as 200 °C.

`CNS(=O)(=O)c1sc(N(C)C(=O)Cc2ccc(-c3cccnc3)cc2)nc1C.Cl` yielded a melting point of 270 °C.

For `CNS(=O)(=O)c1sc(N(C)C(=O)Cc2ccc(Br)cc2)nc1C`, the melting point was 168 °C.

The molecule `CNS(=O)(=O)c1sc(N(C)C(=O)C(C)c2ccc(-c3ccccc3)cc2)nc1C` (centres unmarked) came in with a melting point of 170 to 172 °C.

On to `CCOCCOCCOCCN(C(=O)Cc1ccc(-c2ccccc2)cc1)c1nc(C)c(S(N)(=O)=O)s1`, for which the melting point came out at 94 °C.

Molecule `CNS(=O)(=O)c1sc(N(CCNC(=O)OC(C)(C)C)C(=O)Cc2ccc(-c3ccccc3)cc2)nc1C` returned a melting point of 188 °C.

`CCN(C(=O)Cc1ccc(-c2ccccc2)cc1)c1nc(C)c(S(=O)(=O)NCC(F)(F)F)s1`: the melting point is 152 °C.

`Cc1nc(N(C)C(=O)Cc2ccc(-c3ccccc3)cc2)sc1S(=O)(=O)NCC(F)(F)F` gave a melting point of 216 °C.

As to `Cc1nc(N(C)C(=O)Cc2ccc(-c3cccc(O[Si](C)(C)C(C)(C)C)c3)cc2)sc1S(N)(=O)=O`, the melting point stood at 161 °C.

The molecule `CNS(=O)(=O)c1sc(N(C)C(=O)Cc2ccc(-c3ncccc3N)cc2)nc1C.Cl` returned a melting point of 160 °C.

On to `CNS(=O)(=O)c1sc(N(C)C(=O)Cc2ccc(-c3ccccc3C(F)(F)F)cc2)nc1C`, for which the melting point amounted to 202 °C.

Molecule `CNS(=O)(=O)c1sc(N(C)C(=O)Cc2ccc(-c3cccc(F)c3)cc2)nc1C` gave a melting point of 190 °C.

`CCCCOc1ccc(CC(=O)N(C)c2nc(C)c(S(=O)(=O)NCCOCC)s2)cc1`: the melting point lay in the range of 68 to 70 °C.

With `Cc1nc(N(C)C(=O)Cc2ccc(-c3cccc(N4CCCC4)c3)cc2)sc1S(N)(=O)=O`, the melting point stood at 152 °C.

`CCOc1ccc(CC(=O)N(CCOC)c2nc(C)c(S(N)(=O)=O)s2)cc1` gave a melting point of 165 °C.

As to `CCOc1ccc(CC(=O)N(C)c2nc(C)c(S(N)(=O)=O)s2)cc1`, the melting point stood at 168 °C.

Molecule `Cc1nc(N(Cc2cccnc2)C(=O)Cc2ccc(-c3ccccc3)cc2)sc1S(N)(=O)=O` had a melting point of 189 °C.

Take `CNS(=O)(=O)c1sc(N(C)C(=O)Cc2ccc(-c3ccccc3OC)cc2)nc1C`: the melting point was found to be 192 °C.

With `Cc1nc(N(Cc2ccncc2)C(=O)Cc2ccc(-c3ccccc3)cc2)sc1S(N)(=O)=O`, the melting point stood at 130 °C.

Regarding `Cc1nc(N(C)C(=O)Cc2ccc(-c3cccc([N+](=O)[O-])c3)cc2)sc1S(N)(=O)=O`, the melting point turned out to be 202 °C.

`Cc1ccncc1-c1ccc(CC(=O)N(C)c2nc(C)c(S(N)(=O)=O)s2)cc1`: the melting point came out at 204 °C.

`Cc1nc(N(C)C(=O)Cc2ccc(-c3cncc(C#N)c3)cc2)sc1S(N)(=O)=O`: the melting point was determined as 231 °C.

Take `Cc1nc(N(C)C(=O)Cc2ccc(-c3ccccc3)cc2)sc1S(=O)(=O)NCCNC(=O)OC(C)(C)C`: the melting point was 150 °C.

Molecule `Cc1nc(N(C)C(=O)Cc2ccc(-c3ccccc3)cc2)sc1S(=O)(=O)NCCN(C)C(=O)OC(C)(C)C` registered a melting point of 175 °C.

For `Cc1nc(N(C)C(=O)Cc2ccc(-c3cccc(F)c3F)cc2)sc1S(N)(=O)=O`, the melting point amounted to 202 °C.

In turn, `CNS(=O)(=O)c1sc(N(C)C(=O)Cc2ccc(-c3ccc(OC(F)(F)F)cc3)cc2)nc1C` gave a melting point of 109 °C.

As for `CNS(=O)(=O)c1sc(N(C)C(=O)Cc2ccc(-c3ncccc3C(F)(F)F)cc2)nc1C`, the melting point is 180 °C.

In turn, `CNS(=O)(=O)c1sc(N(C)C(=O)Cc2ccc(-c3cncnc3)cc2)nc1C` came in with a melting point of 193 °C.

Take `C=CCN(C(=O)Cc1ccc(-c2ccccc2)cc1)c1nc(C)c(S(N)(=O)=O)s1`: the melting point stood at 117 °C.

Molecule `Cc1nc(N(Cc2ccccc2)C(=O)Cc2ccc(-c3ccccc3)cc2)sc1S(N)(=O)=O` had a melting point of 154 °C.

Consider `Cc1nc(N(CC2CCCO2)C(=O)Cc2ccc(-c3ccccc3)cc2)sc1S(N)(=O)=O` (centres unmarked), for which the melting point is 159 °C.

One may read the melting point as the temperature, or range, at which the solid turns liquid.

These data come from patent publication US7105553B2, “Thiazolyl amide derivatives” (Bayer Aktiengesellschaft, priority 1999, dated 2006).
